“Also recorded” adds a separate entry of the source. Counter-ions that a name gives are not always drawn.
What was measured:
lymphocytes = assay: Multiple ascending dose study: lymphocyte counts, safety population; type: in vivo, human; conditions: for Lymphocytes, On Treatment Mean / Lymphocytes, Percent Change from Baseline, Mean / Lymphocytes, Percent Change from Baseline, Median / Lymphocytes, Percent Change from Baseline, Min, Max: day 21
Procedure: (§1) A randomized, double-blind, placebo-controlled, sequential, ascending, multiple dose study to assess the safety, tolerability, and pharmacokinetics of the L-arginine salt of Compound 1 administered to healthy adult subjects was conducted. This study was designed to evaluate the safety, tolerability, pharmacokinetics, and pharmacodynamics of the L-arginine salt of Compound 1.
(§2) Cohort 1 was dosed with 0.7 mg (by administering two 0.35 mg formulations) for 21 days. Cohort 2 was dosed with 1.35 mg (by administering both a 0.35 mg formulation and a 1 mg formulation) for 21 days. Cohort 3 was dosed with 2.0 mg for 21 days. Cohort 4 was dosed with 0.35 mg for 7 days and then with 2.0 mg for 14 days. Cohort 5 was dosed with 0.5 for 7 days and then with 3.0 mg (by administering both a 1 mg formulation and a 2 mg formulation) for 14 days.

healthy adult subjects [1] = assay: Multiple ascending dose study: heart rate, safety population; type: in vivo, human; conditions: Day 1 to Day 28
Procedure: as §1, §2
(§3) The following safety assessments were conducted: physical examinations with ophthalmoscopy, clinical laboratory tests (serum chemistry, coagulation, and urinalysis), vital signs, continuous telemetry (12 lead ECG), safety ECGs, pulmonary function testing (PFT), serum protein electrophoresis (SPEP) and serum immunoelectrophoresis (IEP), and adverse event reporting.

healthy adult subjects [2] = assay: Multiple ascending dose study: systolic BP, safety population; type: in vivo, human; conditions: Day 1 to Day 28
Procedure: as §1, §2, §3

healthy adult subjects [3] = assay: Multiple ascending dose study: diastolic BP, safety population; type: in vivo, human; conditions: Day 1 to Day 28
Procedure: as §1, §2, §3

healthy adult subjects [4] = assay: Multiple ascending dose study: QTc, safety population; type: in vivo, human; conditions: Day 1 to Day 23
Procedure: as §1, §2, §3

healthy adult subjects [5] = assay: Multiple ascending dose study: safety assessments and adverse events
Procedure: as §3

[6] = 0.35 mg for 7 days then 2.0 mg for 14 days
[7] = 0.5 mg for 7 days then 3.0 mg for 14 days

O=C(O)C[C@H]1CCc2c1[nH]c1ccc(OCc3ccc(C4CCCC4)c(C(F)(F)F)c3)cc21 [L-arginine salt of Compound 1]
Lymphocytes, On Treatment Mean (lymphocytes; [6]): 0.62 10^3/μl
Lymphocytes, Percent Change from Baseline, Mean (lymphocytes; [6]): −67.34%
Lymphocytes, Percent Change from Baseline, Median (lymphocytes; [6]): −67.54%
Lymphocytes, Percent Change from Baseline, Min, Max (lymphocytes; [6]): −77.27 to −57.14%
Lymphocytes, On Treatment Mean (lymphocytes; [7]): 0.62 10^3/μl
Lymphocytes, Percent Change from Baseline, Mean (lymphocytes; [7]): −66.16%
Lymphocytes, Percent Change from Baseline, Median (lymphocytes; [7]): −65.02%
Lymphocytes, Percent Change from Baseline, Min, Max (lymphocytes; [7]): −85.19 to −53.85%
Lymphocytes, On Treatment Mean (lymphocytes; 0.7 mg for 21 days): 1.06 10^3/μl
Lymphocytes, Percent Change from Baseline, Mean (lymphocytes; 0.7 mg for 21 days): −41.03%
Lymphocytes, Percent Change from Baseline, Median (lymphocytes; 0.7 mg for 21 days): −40.37%
Lymphocytes, Percent Change from Baseline, Min, Max (lymphocytes; 0.7 mg for 21 days): −55.56 to −23.08%
Lymphocytes, On Treatment Mean (lymphocytes; 1.35 mg for 21 days): 0.89 10^3/μl
Lymphocytes, Percent Change from Baseline, Mean (lymphocytes; 1.35 mg for 21 days): −53.43%
Lymphocytes, Percent Change from Baseline, Median (lymphocytes; 1.35 mg for 21 days): −51.85%
Lymphocytes, Percent Change from Baseline, Min, Max (lymphocytes; 1.35 mg for 21 days): −68.75 to −30.77%
Lymphocytes, On Treatment Mean (lymphocytes; 2.0 mg for 21 days): 0.62 10^3/μl
Lymphocytes, Percent Change from Baseline, Mean (lymphocytes; 2.0 mg for 21 days): −68.81%
Lymphocytes, Percent Change from Baseline, Median (lymphocytes; 2.0 mg for 21 days): −69.44%
Lymphocytes, Percent Change from Baseline, Min, Max (lymphocytes; 2.0 mg for 21 days): −80.00 to −55.56%
Lymphocyte lowering, dose dependence (lymphocytes; multiple dose, 0.7 to 3.0 mg): dose-dependent effect on lymphocyte lowering with maximal effect at 2 mg dose
Minimum Value for Post-dose Heart Rate, Change from Baseline, Mean (healthy adult subjects [1]; [6]): −10.60 BPM
Minimum Value for Post-dose Heart Rate, Change from Baseline, Median (healthy adult subjects [1]; [6]): −7.00 BPM
Minimum Value for Post-dose Heart Rate, Change from Baseline, Min, Max (healthy adult subjects [1]; [6]): −35.00 to 3.00 BPM
Minimum Value for Post-dose Heart Rate, On Treatment Mean (healthy adult subjects [1]; [6]): 52.00 BPM
Minimum Value for Post-dose Heart Rate, Change from Baseline, Mean (healthy adult subjects [1]; [7]): −7.30 BPM
Minimum Value for Post-dose Heart Rate, Change from Baseline, Median (healthy adult subjects [1]; [7]): −6.50 BPM
Minimum Value for Post-dose Heart Rate, Change from Baseline, Min, Max (healthy adult subjects [1]; [7]): −14.00 to −2.00 BPM
Minimum Value for Post-dose Heart Rate, On Treatment Mean (healthy adult subjects [1]; [7]): 53.80 BPM
Minimum Value for Post-dose Heart Rate, Change from Baseline, Mean (healthy adult subjects [1]; 0.7 mg for 21 days): −5.50 BPM
Minimum Value for Post-dose Heart Rate, Change from Baseline, Median (healthy adult subjects [1]; 0.7 mg for 21 days): −5.00 BPM
Minimum Value for Post-dose Heart Rate, Change from Baseline, Min, Max (healthy adult subjects [1]; 0.7 mg for 21 days): −12.00 to −1.00 BPM
Minimum Value for Post-dose Heart Rate, On Treatment Mean (healthy adult subjects [1]; 0.7 mg for 21 days): 54.20 BPM
Minimum Value for Post-dose Heart Rate, Change from Baseline, Mean (healthy adult subjects [1]; 1.35 mg for 21 days): −6.20 BPM
Minimum Value for Post-dose Heart Rate, Change from Baseline, Median (healthy adult subjects [1]; 1.35 mg for 21 days): −5.00 BPM
Minimum Value for Post-dose Heart Rate, Change from Baseline, Min, Max (healthy adult subjects [1]; 1.35 mg for 21 days): −18.00 to 3.00 BPM
Minimum Value for Post-dose Heart Rate, On Treatment Mean (healthy adult subjects [1]; 1.35 mg for 21 days): 54.40 BPM
Minimum Value for Post-dose Heart Rate, Change from Baseline, Mean (healthy adult subjects [1]; 2.0 mg for 21 days): −8.30 BPM
Minimum Value for Post-dose Heart Rate, Change from Baseline, Median (healthy adult subjects [1]; 2.0 mg for 21 days): −7.50 BPM
Minimum Value for Post-dose Heart Rate, Change from Baseline, Min, Max (healthy adult subjects [1]; 2.0 mg for 21 days): −16.00 to −3.00 BPM
Minimum Value for Post-dose Heart Rate, On Treatment Mean (healthy adult subjects [1]; 2.0 mg for 21 days): 51.00 BPM
Minimum Value for Post-dose Systolic BP, Change from Baseline, Mean (healthy adult subjects [2]; [6]): −13.00 mmHg
Minimum Value for Post-dose Systolic BP, Change from Baseline, Median (healthy adult subjects [2]; [6]): −13.00 mmHg
Minimum Value for Post-dose Systolic BP, Change from Baseline, Min, Max (healthy adult subjects [2]; [6]): −28.00 to 0.00 mmHg
Minimum Value for Post-dose Systolic BP, On Treatment Mean (healthy adult subjects [2]; [6]): 94.30 mmHg
Minimum Value for Post-dose Systolic BP, Change from Baseline, Mean (healthy adult subjects [2]; [7]): −7.80 mmHg
Minimum Value for Post-dose Systolic BP, Change from Baseline, Median (healthy adult subjects [2]; [7]): −5.00 mmHg
Minimum Value for Post-dose Systolic BP, Change from Baseline, Min, Max (healthy adult subjects [2]; [7]): −18.00 to 5.00 mmHg
Minimum Value for Post-dose Systolic BP, On Treatment Mean (healthy adult subjects [2]; [7]): 93.20 mmHg
Minimum Value for Post-dose Systolic BP, Change from Baseline, Mean (healthy adult subjects [2]; 0.7 mg for 21 days): −9.70 mmHg
Minimum Value for Post-dose Systolic BP, Change from Baseline, Median (healthy adult subjects [2]; 0.7 mg for 21 days): −9.50 mmHg
Minimum Value for Post-dose Systolic BP, Change from Baseline, Min, Max (healthy adult subjects [2]; 0.7 mg for 21 days): −16.00 to −1.00 mmHg
Minimum Value for Post-dose Systolic BP, On Treatment Mean (healthy adult subjects [2]; 0.7 mg for 21 days): 96.10 mmHg
Minimum Value for Post-dose Systolic BP, Change from Baseline, Mean (healthy adult subjects [2]; 1.35 mg for 21 days): −8.90 mmHg
Minimum Value for Post-dose Systolic BP, Change from Baseline, Median (healthy adult subjects [2]; 1.35 mg for 21 days): −8.00 mmHg
Minimum Value for Post-dose Systolic BP, Change from Baseline, Min, Max (healthy adult subjects [2]; 1.35 mg for 21 days): −22.00 to 3.00 mmHg
Minimum Value for Post-dose Systolic BP, On Treatment Mean (healthy adult subjects [2]; 1.35 mg for 21 days): 100.10 mmHg
Minimum Value for Post-dose Systolic BP, Change from Baseline, Mean (healthy adult subjects [2]; 2.0 mg for 21 days): −9.80 mmHg
Minimum Value for Post-dose Systolic BP, Change from Baseline, Median (healthy adult subjects [2]; 2.0 mg for 21 days): −9.00 mmHg
Minimum Value for Post-dose Systolic BP, Change from Baseline, Min, Max (healthy adult subjects [2]; 2.0 mg for 21 days): −18.00 to −4.00 mmHg
Minimum Value for Post-dose Systolic BP, On Treatment Mean (healthy adult subjects [2]; 2.0 mg for 21 days): 90.80 mmHg
Minimum Value for Post-dose Diastolic BP, Change from Baseline, Mean (healthy adult subjects [3]; [6]): −7.90 mmHg
Minimum Value for Post-dose Diastolic BP, Change from Baseline, Median (healthy adult subjects [3]; [6]): −6.00 mmHg
Minimum Value for Post-dose Diastolic BP, Change from Baseline, Min, Max (healthy adult subjects [3]; [6]): −19.00 to −1.00 mmHg
Minimum Value for Post-dose Diastolic BP, On Treatment Mean (healthy adult subjects [3]; [6]): 50.80 mmHg
Minimum Value for Post-dose Diastolic BP, Change from Baseline, Mean (healthy adult subjects [3]; [7]): −6.30 mmHg
Minimum Value for Post-dose Diastolic BP, Change from Baseline, Median (healthy adult subjects [3]; [7]): −7.00 mmHg
Minimum Value for Post-dose Diastolic BP, Change from Baseline, Min, Max (healthy adult subjects [3]; [7]): −13.00 to 3.00 mmHg
Minimum Value for Post-dose Diastolic BP, On Treatment Mean (healthy adult subjects [3]; [7]): 50.20 mmHg
Minimum Value for Post-dose Diastolic BP, Change from Baseline, Mean (healthy adult subjects [3]; 0.7 mg for 21 days): −6.10 mmHg
Minimum Value for Post-dose Diastolic BP, Change from Baseline, Median (healthy adult subjects [3]; 0.7 mg for 21 days): −6.00 mmHg
Minimum Value for Post-dose Diastolic BP, Change from Baseline, Min, Max (healthy adult subjects [3]; 0.7 mg for 21 days): −16.00 to 2.00 mmHg
Minimum Value for Post-dose Diastolic BP, On Treatment Mean (healthy adult subjects [3]; 0.7 mg for 21 days): 56.00 mmHg
Minimum Value for Post-dose Diastolic BP, Change from Baseline, Mean (healthy adult subjects [3]; 1.35 mg for 21 days): −5.20 mmHg
Minimum Value for Post-dose Diastolic BP, Change from Baseline, Median (healthy adult subjects [3]; 1.35 mg for 21 days): −7.50 mmHg
Minimum Value for Post-dose Diastolic BP, Change from Baseline, Min, Max (healthy adult subjects [3]; 1.35 mg for 21 days): −11.00 to 6.00 mmHg
Minimum Value for Post-dose Diastolic BP, On Treatment Mean (healthy adult subjects [3]; 1.35 mg for 21 days): 53.70 mmHg
Minimum Value for Post-dose Diastolic BP, Change from Baseline, Mean (healthy adult subjects [3]; 2.0 mg for 21 days): −11.20 mmHg
Minimum Value for Post-dose Diastolic BP, Change from Baseline, Median (healthy adult subjects [3]; 2.0 mg for 21 days): −9.00 mmHg
Minimum Value for Post-dose Diastolic BP, Change from Baseline, Min, Max (healthy adult subjects [3]; 2.0 mg for 21 days): −21.00 to −4.00 mmHg
Minimum Value for Post-dose Diastolic BP, On Treatment Mean (healthy adult subjects [3]; 2.0 mg for 21 days): 45.30 mmHg
Maximum Value for Post-dose QTc, Change from Baseline, Mean (healthy adult subjects [4]; [6]): −0.10 MS
Maximum Value for Post-dose QTc, Change from Baseline, Median (healthy adult subjects [4]; [6]): 0.50 MS
Maximum Value for Post-dose QTc, Change from Baseline, Min, Max (healthy adult subjects [4]; [6]): −19.00 to 17.00 MS
Maximum Value for Post-dose QTc, On Treatment Mean (healthy adult subjects [4]; [6]): 411.10 MS
Maximum Value for Post-dose QTc, Change from Baseline, Mean (healthy adult subjects [4]; [7]): 5.60 MS
Maximum Value for Post-dose QTc, Change from Baseline, Median (healthy adult subjects [4]; [7]): 5.00 MS
Maximum Value for Post-dose QTc, Change from Baseline, Min, Max (healthy adult subjects [4]; [7]): −5.00 to 15.00 MS
Maximum Value for Post-dose QTc, On Treatment Mean (healthy adult subjects [4]; [7]): 425.10 MS
Maximum Value for Post-dose QTc, Change from Baseline, Mean (healthy adult subjects [4]; 0.7 mg for 21 days): 3.60 MS
Maximum Value for Post-dose QTc, Change from Baseline, Median (healthy adult subjects [4]; 0.7 mg for 21 days): 3.50 MS
Maximum Value for Post-dose QTc, Change from Baseline, Min, Max (healthy adult subjects [4]; 0.7 mg for 21 days): −8.00 to 16.00 MS
Maximum Value for Post-dose QTc, On Treatment Mean (healthy adult subjects [4]; 0.7 mg for 21 days): 418.40 MS
Maximum Value for Post-dose QTc, Change from Baseline, Mean (healthy adult subjects [4]; 1.35 mg for 21 days): 8.20 MS
Maximum Value for Post-dose QTc, Change from Baseline, Median (healthy adult subjects [4]; 1.35 mg for 21 days): 6.00 MS
Maximum Value for Post-dose QTc, Change from Baseline, Min, Max (healthy adult subjects [4]; 1.35 mg for 21 days): −5.00 to 25.00 MS
Maximum Value for Post-dose QTc, On Treatment Mean (healthy adult subjects [4]; 1.35 mg for 21 days): 423.60 MS
Maximum Value for Post-dose QTc, Change from Baseline, Mean (healthy adult subjects [4]; 2.0 mg for 21 days): 4.00 MS
Maximum Value for Post-dose QTc, Change from Baseline, Median (healthy adult subjects [4]; 2.0 mg for 21 days): 4.50 MS
Maximum Value for Post-dose QTc, Change from Baseline, Min, Max (healthy adult subjects [4]; 2.0 mg for 21 days): −8.00 to 13.00 MS
Maximum Value for Post-dose QTc, On Treatment Mean (healthy adult subjects [4]; 2.0 mg for 21 days): 421.20 MS
Subjects with mildly abnormal reproducible (NCS) pulmonary function test findings (FEV1 below 80%, FVC) post-dose (healthy adult subjects [5]; 1.35 mg dose): One
Subjects with mildly abnormal non-clinically significant post-treatment liver function tests (elevated ALT & AST <2× ULN) (healthy adult subjects [5]; 2mg group): 1 subject
Subjects with new 1st degree atrioventricular block (healthy adult subjects [5]; 2mg group): 1 subject
Subjects with new 1st degree atrioventricular block (healthy adult subjects [5]; 0.5, 3 mg group): 1 subject
Subjects with mildly abnormal non-clinically significant post-treatment liver function tests (elevated ALT & AST <2× ULN) (healthy adult subjects [5]; 0.5 escalating to 3 mg group): 1 subject
Discontinuation due to an adverse event (healthy adult subjects [5]; multiple dose): No subjects were discontinued due to an adverse event
Most common adverse events (healthy adult subjects [5]; multiple dose): contact dermatitis and leukopenia, followed by constipation, diarrhea, nausea, and abdominal pain
Ophthalmoscopy findings (healthy adult subjects [5]; multiple dose): No clinically significant change from baseline
Severity of adverse events (healthy adult subjects [5]; multiple dose): majority of adverse events were mild
Vital signs, ECGs, PFTs, ophthalmoscopy, clinical laboratory tests (healthy adult subjects [5]; multiple dose): no other clinically significant safety issues
SAEs or deaths (healthy adult subjects [5]; multiple dose, all dose levels): No SAEs or deaths
Second degree heart block (healthy adult subjects [5]; multiple dose, all dose levels): No second degree heart block
Tolerability (healthy adult subjects [5]; multiple dose, all dose levels (0.7 to 3.0 mg, 21 days)): tolerated at all dose levels; also recorded: well tolerated at all doses tested
